# Experimental data taken from US20130065964A1, “PERITONEAL DIALYSIS SOLUTION” (UNIVERSIDAD DE CASTILLA LA MANCHA, priority 2010, published 2013).
# How the values were obtained:
# [1] = test system: rat peritoneal mesothelial cells; assay: Cytotoxicity study, LDH release; format: cell-based; settings: rat PMCs, 72 hours, FIG. 5
# Experimental: The cells were treated with carrier or aliskiren for 72 hours and cell viability was evaluated quantifying the LDH released into the culture medium. The data is expressed as mean±SEM, n=12. * p<0.05 compared to the control (carrier).
# Rat peritoneal mesothelial cells were isolated by enzymatic digestion in accordance with protocols described in Hjelle J T, Golinska B T, Waters D C, et al. Perit Dial Int 1989; 9: 341-7. Briefly, female rats weighing 200-400 g of the Spragle-Dawley strain were sacrificed pursuant to Royal Decree 1201/2005, of 10 Oct., on protection of animals used for experimental and other scientific purposes. The abdominal cavity was quickly opened and the abdominal wall (peritoneum and smooth muscle) extracted under sterile conditions. […]
# To this end, the cells were seeded on 24-well plates and exposed to the peritoneal dialysis solutions object of the present invention to study their toxicity. The toxic effects were evaluated measuring cell membrane rupture and the consequent release of LDH to the supernatant through the CytoTox96® kit (Promega). […] Absorbance of the lysate and cell supernatant was obtained using a microplate spectrophotometer at a wavelength of 490 nm, following the manufacturer's instructions.
# fibronectin = assay: Real-time RT-PCR in PMCs from dialysed rats; format: in vivo, rat; settings: peritoneal cells from rats dialysed four weeks, aliskiren 0.1 or 1 mg/Kg, FIG. 17
# Experimental: The rats were exposed daily for four weeks to carrier (saline serum), 1.5% PDF, 2.3% PDF or 4.5% PDF supplemented by carrier, 0.1 mg/Kg aliskiren or 1 mg/Kg aliskiren. The data is expressed as mean±SEM, n=6 rats per group.* p<0.05, compared to the group treated with carrier in the absence of aliskiren (carrier). # p<0.05, compared to their respective groups treated with PDFs in the absence of aliskiren. […]
# At the end of the experimental period (four weeks), 30 ml of a commercial PDF with 2.3% glucose (Fresenius Medical Car, Bad Homburg, Germany) was administered intraperitoneally using a 22G needle. […] Their body weight was measured at the start and end of the experimental period. […]
# The blood and dialysate samples were centrifuged and stored at −20° C. The concentrations of creatinine and glucose in the serum and dialysate were measured using enzymatic methods. The peritoneal transport of solutes was calculated, on one hand, as the glucose concentration in the dialysate 2 hours after the PET relative to the initial glucose concentration in the PDF (D2/D0 glucose) and, on the other, as the dialysate/plasma creatinine concentration ratio (D2/P2 creatinine) 2 h after the PET. […]
# The RNA expression was evaluated by real-time RT-PCR in PMCs. […] RNA quality and concentration was evaluated by spectrophotometry (Infinite 200, Tecan, Salzburg, Austria) using 1 μl of the RNA sample. […]
compound,measurement,setting,value
COCCCOc1cc(C[C@@H](C[C@H](N)[C@@H](O)C[C@H](C(=O)NCC(C)(C)C(N)=O)C(C)C)C(C)C)ccc1OC [aliskiren],concentration at which toxicity with respect to mesothelial cells is shown (LDH released),[1],≥ 1000 µM
same,RNAm expression of fibronectin,fibronectin,increased
